Assay results reported in patent publication US9840498B2, “Substituted quinazolin-4-one derivatives” (NOVARTIS AG, priority 2013, dated 2017).

Experiments:
Details in all cases: enzymatic assay
PI3K gamma = PI3K gamma (Homo sapiens (Human), UniProt P48736); assay: Biochemical assay for PI3Kgamma (Adapta TR-FRET format)
Source text: (§1) For the enzymatic assays, the preparation of PI3K gene constructs, protein expression and purification for HTS are described in WO2012/004299. […] The TR-FRET Adapta™ Universal Kinase Assay Kit was purchased from Invitrogen Corporation (Carlsbad/CA, USA) (Cat. No. PV5099). The kit contains the following reagents: Adapta Eu-anti-ADP Antibody (Europium labeled anti-ADP antibody in HEPES buffered saline, Cat. No. PV5097), Alexa Fluor® 647-labeled ADP tracer (Alexa Fluor® 647-labeled ADP tracer in HEPES buffered saline, Cat. No. PV5098), proprietary TR-FRET dilution buffer pH 7.5 (Cat. No. PV3574). PIK3CD substrate Phosphatidylinositol was obtained from Invitrogen (vesicules consisting of 2 mM PI in 50 mM HEPES pH7.5; Cat. No. PV5371). PIK3CG substrate Phosphatidylinositol-4,5-bisphosphate (PIP(4,5)2 was obtained from Invitrogen (PIP2:PS large unilamellar vesicules consisting of 1 mM PI P2: 19 mM PS in 50 mM HEPES pH7.5, 3 mM MgCl2, 1 mM EGTA; Cat. No. PV5100). Time-Resolved Fluorescence Resonance Energy Transfer (TR-FRET) is a technology based on energy transfer between two adjacent dyes, from an excited electron in one dye (the donor) to an electron of an adjacent dye (the acceptor) through resonance, then released as a photon. This energy transfer is detected by an increase in the fluorescence emission of the acceptor, and a decrease in the fluorescence emission of the donor. TR-FRET assays for protein kinases use a long-lifetime lanthanide Terbium or Europium chelates as the donor species which overcome interference from compound autofluorescence or light scatter from precipitated compounds, by introducing a delay after excitation by a flashlamp excitation source. Results are often expressed as a ratio of the intensities of the acceptor and donor fluorophores. The ratiometric nature of such a value corrects for differences in assay volumes between wells, as well as corrects for quenching effects due to colored compounds. The Adapta™ assay can be divided into two phases: a kinase reaction phase and an ADP detection phase. In the kinase reaction phase, all kinase reaction components are added to the well and the reaction is allowed to incubate for a set period of time specific for each kinase. After the reaction, a detection solution of Eu-labeled anti-ADP antibody, Alexa Fluor® 647-labeled ADP tracer, and EDTA (to stop the kinase reaction) are added to the assay well. ADP formed by the kinase reaction will displace the Alexa Fluor® 647-labeled ADP tracer from the antibody, resulting in a decrease in TR-FRET signal. In the presence of an inhibitor, the amount of ADP formed by the kinase reaction is reduced, and the resulting intact antibody-tracer interaction maintains a high TR-FRET signal. In the Adapta™ assay, the donor (Europium-anti-ADP antibody) is excited at 340 nm and will transfer its energy to the acceptor (Alexa Fluor® 647-labeled ADP tracer). The emission from the Alexa Fluor® 647 can be monitored with a filter centered at 665 nm because it is located between the emission peaks of the donor, which is measured at 615/620 nm. 50 nL of compound dilutions were dispensed onto white 384-well small volume polystyrene plate as described in section 2.2. Then 5 μL of PI3Kgamma and PI3Kdelta and lipid substrate (PI or PIP2:PS) followed by 5 μL of ATP (final assay volume 10 μL) are incubated at RT. […] Reactions were stopped with 5 μL of a mixture of EDTA containing the Eu-labeled anti-ADP antibody and the Alexa Fluor® 647-labeled ADP tracer in TR-FRET dilution buffer (proprietary to IVG). Plates are read 15 to 60 mins later in a Synergy2 reader using an integration time of 0.4 seconds and a delay of 0.05 seconds. […] The control for the 0% inhibition was given by the solvent vehicle of the compounds (90% DMSO in H2O). Data are analyzed using Excel fit software or Graphpad Prism. EC50 values were derived by fitting a sigmoidal dose-response curve to a plot of assay readout over inhibitor concentration. […]

PI3K delta = PI3K delta (Homo sapiens (Human), UniProt O00329); assay: Biochemical assay for PI3Kdelta (Adapta TR-FRET format)
Source text: as §1

PI3K alpha = PI3K alpha (Homo sapiens (Human), UniProt P42336); assay: Biochemical assay for PI3Kalpha (Kinase-Glo format)
Experimental: 1.1 Generation of Gene Constructs, Protein Expression and Purification
For the enzymatic assays, the preparation of PI3K gene constructs, protein expression and purification for HTS are described in WO2012/004299.
1.2 Biochemical Assays for PI3Kalpha, PI3Kbeta (Kinase-Glo Format)
The kinase reaction is performed in a final volume of 50 μl per well of a half area COSTAR, 96 well plate. The final concentrations of ATP and phosphatidyl inositol in the assay are 5 μM and 6 μg/mL, respectively. The reaction is started by the addition of PI3 kinase, e.g. PI3 kinase α.
The components of the assay are added per well as follows: • 10 μl test compound in 5% DMSO per well in […]. • Total activity is determined by addition 10 μl of 5% vol/vol DMSO in the first 4 wells of column 1 and the last 4 wells of column 12. • The background is determined by addition of 10 μM control compound to the last 4 wells of column 1 and the first 4 wells of column 12. • 2 mL ‘Assay mix’ are prepared per plate: • 1.912 mL of HEPES assay buffer • 8.33 μl of 3 mM stock of ATP giving a final concentration of 5 μM per well • 1 μl of [^33P]ATP on the activity date giving 0.05 μCi per well • 30 μl of 1 mg/mL PI stock giving a final concentration of 6 μg/mL per well • 5 μl of 1 M stock MgCl2 giving a final concentration of 1 mM per well • 20 μl of the assay mix are added per well. • 2 mL ‘Enzyme mix’ are prepared per plate (x* μl PI3 kinase p110α in 2 mL of kinase buffer). The ‘Enzyme mix’ is kept on ice during addition to the assay plates. * The volume of enzyme is dependent on the enzymatic activity of the batch in use. • 20 μl ‘Enzyme mix’ are added/well to start the reaction. • The plate is then incubated at room temperature for 90 minutes. • The reaction is terminated by the addition of 50 μl WGA-SPA bead (wheat germ agglutinin-coated Scintillation Proximity Assay beads) suspension per well. • The assay plate is sealed using TopSeal-S (heat seal for polystyrene microplates, PerkinElmer LAS [Deutschland] GmbH, Rodgau, Germany) and incubated at room temperature for at least 60 minutes. • The assay plate is then centrifuged at 1500 rpm for 2 minutes using the Jouan bench top centrifuge (Jouan Inc., Nantes, France). • The assay plate is counted using a Packard TopCount, each well being counted for 20 seconds.
In a more preferred assay, the kinase reaction is performed in a final volume of 10 μl per well of a low volume non-binding CORNING, 384 well black plate (Cat. No. #3676). The final concentrations of ATP and phosphatidyl inositol (PI) in the assay are 1 μM and 10 μg/mL, respectively. The reaction is started by the addition of ATP.
The components of the assay are added per well as follows: […]

PI3K gamma, sequence (P48736 whole entry): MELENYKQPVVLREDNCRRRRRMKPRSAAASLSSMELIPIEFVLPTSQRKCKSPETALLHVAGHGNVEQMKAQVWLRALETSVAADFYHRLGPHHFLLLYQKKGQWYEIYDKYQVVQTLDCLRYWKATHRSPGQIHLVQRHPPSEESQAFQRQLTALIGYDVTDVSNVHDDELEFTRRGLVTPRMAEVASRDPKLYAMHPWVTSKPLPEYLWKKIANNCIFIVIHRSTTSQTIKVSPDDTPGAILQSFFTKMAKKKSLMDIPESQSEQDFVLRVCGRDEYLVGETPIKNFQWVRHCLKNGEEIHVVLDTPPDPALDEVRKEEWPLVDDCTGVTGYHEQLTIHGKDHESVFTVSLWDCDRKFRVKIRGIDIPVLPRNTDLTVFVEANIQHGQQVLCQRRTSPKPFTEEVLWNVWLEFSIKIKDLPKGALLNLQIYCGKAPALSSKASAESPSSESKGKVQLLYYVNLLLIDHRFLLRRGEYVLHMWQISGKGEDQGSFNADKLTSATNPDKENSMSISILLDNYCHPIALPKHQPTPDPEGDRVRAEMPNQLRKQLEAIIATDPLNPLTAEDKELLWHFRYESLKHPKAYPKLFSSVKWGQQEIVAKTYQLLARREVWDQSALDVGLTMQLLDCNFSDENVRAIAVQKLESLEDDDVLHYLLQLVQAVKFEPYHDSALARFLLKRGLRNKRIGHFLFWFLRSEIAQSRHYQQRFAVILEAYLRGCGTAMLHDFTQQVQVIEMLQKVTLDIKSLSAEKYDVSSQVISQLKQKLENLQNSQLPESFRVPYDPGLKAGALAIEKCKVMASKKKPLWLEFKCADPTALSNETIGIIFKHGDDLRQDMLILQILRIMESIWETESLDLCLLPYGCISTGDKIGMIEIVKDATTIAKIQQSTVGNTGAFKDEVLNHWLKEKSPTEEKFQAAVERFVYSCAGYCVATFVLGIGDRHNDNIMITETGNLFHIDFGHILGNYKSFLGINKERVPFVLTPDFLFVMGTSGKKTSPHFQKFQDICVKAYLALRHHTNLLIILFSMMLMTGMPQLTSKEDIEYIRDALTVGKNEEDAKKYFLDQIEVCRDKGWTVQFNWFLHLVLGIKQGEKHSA
PI3K delta, sequence (O00329 2-1044): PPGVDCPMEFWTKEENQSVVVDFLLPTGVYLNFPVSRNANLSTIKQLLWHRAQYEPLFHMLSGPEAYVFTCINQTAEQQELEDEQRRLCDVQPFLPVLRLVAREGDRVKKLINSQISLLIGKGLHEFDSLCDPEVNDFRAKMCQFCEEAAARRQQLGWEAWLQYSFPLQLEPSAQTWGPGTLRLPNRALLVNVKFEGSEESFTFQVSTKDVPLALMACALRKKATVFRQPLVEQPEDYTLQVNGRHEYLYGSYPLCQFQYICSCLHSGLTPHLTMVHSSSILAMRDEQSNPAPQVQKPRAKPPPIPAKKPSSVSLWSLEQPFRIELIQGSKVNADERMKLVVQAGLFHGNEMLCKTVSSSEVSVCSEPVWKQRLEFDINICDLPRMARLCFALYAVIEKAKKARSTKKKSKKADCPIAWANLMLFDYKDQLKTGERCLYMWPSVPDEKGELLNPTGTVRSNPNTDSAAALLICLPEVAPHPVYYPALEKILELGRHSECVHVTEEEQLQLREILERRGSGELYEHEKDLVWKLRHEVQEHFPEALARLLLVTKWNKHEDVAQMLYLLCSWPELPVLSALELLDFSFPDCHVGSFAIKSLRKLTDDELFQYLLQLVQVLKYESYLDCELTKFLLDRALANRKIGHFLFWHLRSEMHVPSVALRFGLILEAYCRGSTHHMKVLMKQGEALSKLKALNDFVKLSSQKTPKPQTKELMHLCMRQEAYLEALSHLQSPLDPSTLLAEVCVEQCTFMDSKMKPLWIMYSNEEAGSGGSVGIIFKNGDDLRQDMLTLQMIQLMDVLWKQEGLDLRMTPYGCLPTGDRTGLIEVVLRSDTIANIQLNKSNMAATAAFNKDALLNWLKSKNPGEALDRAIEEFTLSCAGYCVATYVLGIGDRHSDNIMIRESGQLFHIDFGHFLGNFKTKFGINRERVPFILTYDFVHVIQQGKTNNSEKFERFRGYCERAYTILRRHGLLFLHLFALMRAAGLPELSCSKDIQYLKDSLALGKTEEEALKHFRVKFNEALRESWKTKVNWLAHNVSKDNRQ
PI3K delta, sequence (P27986 461-568 partner): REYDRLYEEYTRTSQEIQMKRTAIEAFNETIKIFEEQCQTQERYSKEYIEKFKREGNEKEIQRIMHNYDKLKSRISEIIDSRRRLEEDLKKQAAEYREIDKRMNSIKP
PI3K alpha, sequence (P42336 21-1068): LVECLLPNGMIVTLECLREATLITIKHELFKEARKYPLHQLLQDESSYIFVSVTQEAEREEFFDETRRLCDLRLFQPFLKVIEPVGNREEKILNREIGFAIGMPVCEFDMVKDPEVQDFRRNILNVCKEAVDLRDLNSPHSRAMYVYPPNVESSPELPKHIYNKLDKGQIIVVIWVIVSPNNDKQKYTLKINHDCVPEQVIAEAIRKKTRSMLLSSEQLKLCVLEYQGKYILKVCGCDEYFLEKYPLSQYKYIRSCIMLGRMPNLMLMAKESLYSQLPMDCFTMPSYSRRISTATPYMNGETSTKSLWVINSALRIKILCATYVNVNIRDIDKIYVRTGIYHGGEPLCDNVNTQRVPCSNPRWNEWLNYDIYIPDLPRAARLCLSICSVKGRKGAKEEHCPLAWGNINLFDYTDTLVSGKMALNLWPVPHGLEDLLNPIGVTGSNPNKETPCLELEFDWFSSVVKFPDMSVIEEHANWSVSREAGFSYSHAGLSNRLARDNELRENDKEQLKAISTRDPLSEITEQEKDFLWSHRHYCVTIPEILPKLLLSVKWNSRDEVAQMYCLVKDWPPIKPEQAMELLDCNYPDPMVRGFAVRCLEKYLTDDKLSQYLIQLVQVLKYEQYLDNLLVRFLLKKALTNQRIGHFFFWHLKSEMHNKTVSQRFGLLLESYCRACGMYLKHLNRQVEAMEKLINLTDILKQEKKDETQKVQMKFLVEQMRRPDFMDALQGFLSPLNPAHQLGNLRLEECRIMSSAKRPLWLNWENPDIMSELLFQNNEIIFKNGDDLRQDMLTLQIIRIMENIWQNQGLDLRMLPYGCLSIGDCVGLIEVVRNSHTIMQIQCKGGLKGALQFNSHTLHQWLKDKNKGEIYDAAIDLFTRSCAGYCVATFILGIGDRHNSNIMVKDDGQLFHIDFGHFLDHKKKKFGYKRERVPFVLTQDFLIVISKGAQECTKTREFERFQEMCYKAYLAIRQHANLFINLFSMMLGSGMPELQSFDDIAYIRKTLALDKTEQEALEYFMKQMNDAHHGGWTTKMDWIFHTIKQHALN
PI3K alpha, sequence (P27986 461-568 partner): as the sequence (P27986 461-568 partner) above

## COc1ncc(-c2cccc3nc([C@@H]4CCCN4c4nc(N)nc(C)c4C#N)n(-c4ccccc4)c(=O)c23)cn1 [Example 4, (S)-2-Amino-4-(2-(5-(2-methoxypyrimidin-5-yl)-4-oxo-3-phenyl-3,4-dihydroquinazolin-2-yl)pyrrolidin-1-yl)-6-methylpyrimidine-5-carbonitrile]
PI3K gamma
  IC50: 82 nM
PI3K delta
  IC50: 6 nM
PI3K alpha
  IC50: 320 nM

## Cc1nc(N)nc(N2C[C@@H](O)C[C@H]2c2nc3ccc(F)c(-c4cn(C)cn4)c3c(=O)n2-c2ccccc2)c1C#N [Example 31, 2-Amino-4-((2S,4S)-2-(6-fluoro-5-(1-methyl-1H-imidazol-4-yl)-4-oxo-3-phenyl-3,4-dihydroquinazolin-2-yl)-4-hydroxypyrrolidin-1-yl)-6-methylpyrimidine-5-carbonitrile]
PI3K gamma
  IC50: 110 nM
PI3K delta
  IC50: 13 nM
PI3K alpha
  IC50: 570 nM

## Cc1nc(N)nc(N2C[C@@H](O)C[C@H]2c2nc3cccc(-c4cnn(C)c4)c3c(=O)n2-c2ccccc2)c1C#N [Example 16, 2-Amino-4-((2S,4S)-4-hydroxy-2-(5-(1-methyl-1H-pyrazol-4-yl)-4-oxo-3-phenyl-3,4-dihydroquinazolin-2-yl)pyrrolidin-1-yl)-6-methylpyrimidine-5-carbonitrile]
PI3K gamma
  IC50: 48 nM
PI3K delta
  IC50: 7 nM
PI3K alpha
  IC50: 180 nM

## N#Cc1c(N)ncnc1N1CCC[C@H]1c1nc2cccc(C#CCO)c2c(=O)n1-c1ccccc1 [Example 33, (S)-4-Amino-6-(2-(5-(3-hydroxyprop-1-yn-1-yl)-4-oxo-3-phenyl-3,4-dihydroquinazolin-2-yl)pyrrolidin-1-yl)pyrimidine-5-carbonitrile]
PI3K gamma
  IC50: 81 nM
PI3K delta
  IC50: 13 nM
PI3K alpha
  IC50: 620 nM

## Cn1cc(-c2c(F)ccc3nc([C@@H]4CCCN4c4ncnc(N)c4C#N)n(-c4ccccc4)c(=O)c23)cn1 [Example 5, (S)-4-Amino-6-(2-(6-fluoro-5-(1-methyl-1H-pyrazol-4-yl)-4-oxo-3-phenyl-3,4-dihydroquinazolin-2-yl)pyrrolidin-1-yl)pyrimidine-5-carbonitrile]
PI3K gamma
  IC50: 85 nM
PI3K delta
  IC50: 4 nM
PI3K alpha
  IC50: 230 nM

## COc1ccc(-c2cccc3nc([C@@H]4CCCN4c4nc(N)nc(C)c4C#N)n(-c4ccccc4)c(=O)c23)cn1 [Example 21, (S)-2-Amino-4-(2-(5-(6-methoxypyridin-3-yl)-4-oxo-3-phenyl-3,4-dihydroquinazolin-2-yl)pyrrolidin-1-yl)-6-methylpyrimidine-5-carbonitrile]
PI3K gamma
  IC50: 270 nM
PI3K delta
  IC50: 24 nM
PI3K alpha
  IC50: 260 nM

## Cc1ncc(-c2cccc3nc([C@@H]4CCCN4c4nc(N)nc(C)c4C#N)n(-c4ccccc4)c(=O)c23)cn1 [Example 19, (S)-2-Amino-4-methyl-6-(2-(5-(2-methylpyrimidin-5-yl)-4-oxo-3-phenyl-3,4-dihydroquinazolin-2-yl)pyrrolidin-1-yl)pyrimidine-5-carbonitrile]
PI3K gamma
  IC50: 390 nM
PI3K delta
  IC50: 17 nM
PI3K alpha
  IC50: 820 nM

## Cc1nc(N)nc(N2C[C@@H](O)C[C@H]2c2nc3cccc(-c4cnn(CCO)c4)c3c(=O)n2-c2ccccc2)c1C#N [Example 28, 2-Amino-4-((2S,4S)-4-hydroxy-2-(5-(1-(2-hydroxyethyl)-1H-pyrazol-4-yl)-4-oxo-3-phenyl-3,4-dihydroquinazolin-2-yl)pyrrolidin-1-yl)-6-methylpyrimidine-5-carbonitrile]
PI3K gamma
  IC50: 21 nM
PI3K delta
  IC50: 10 nM
PI3K alpha
  IC50: 240 nM
